Assays:
[1] = system: EHT cells; experiment: EHT cell subculture with compounds, flow cytometry; format: cell-based, human; settings: deriving from EHT cells, day 6; UK5099 10 μM
[2] = system: HE cells; experiment: Lymphoid differentiation assay on OP9-DL1 stroma; format: cell-based, human; settings: 3-day subculture with UK5099 10 μM or DCA 3 mM, then 35-day co-culture, vs untreated
Experimental: Subculture day 3 HE cells cultured in the presence of UK5099 (10 μM), DCA (3 mM), or in glutamine-free medium with DMK (1.75 mM), nucleosides (1×) or NEAAs (1×), as indicated, were collected after a 2-minute incubation at 37° C. with StemPro Accutase Cell Dissociation Reagent and seeded onto 80% confluent OP9-DL1 stroma. Cells were cultured in OP9 medium with SCF (10 ng/ml), FLT3-L (10 ng/ml), IL-2 (5 ng/ml), IL-7 (5 ng/ml, first 15 days only) and IL-15 (10 ng/ml) with passaging onto new OP9-DL1 stroma every week, as described previously (Renoux, V. M. et al. Immunity 43, 394-407 (2015)). At day 35 of co-culture, cells were analyzed on a BD LSRFortessa.

[3] = system: C57Bl/6xB6.SJL mice; experiment: In vivo compound injection of pregnant mice, fetal liver analysis at E14.5
Experimental: (§1) Pregnant female C57Bl/6xB6.SJL mice were injected intraperitoneally at E9.5 with UK5099 (4 mg/kg) or DCA (200 mg/kg) or PBS (control). Embryos were harvested at E14.5 and individually weighed and processed. Fetal livers were dissected and homogenized in 800 μL ice cold PBS supplemented with 2% fetal bovine serum (FBS) and FL cells were washed in PBS with 2% FBS. For the differentiated lineage panel, cells were stained with B220 and CD19 (B-cell markers)-PE, CD3e-APC, Ter119-PeCy7 and CD71-FITC and analyzed on a BD FACSARIA III. For the HSC panel, samples were first treated with ammonium chloride solution (STEMCELL Technologies, France) to lyse red blood cells, washed twice in ice cold PBS with 2% FBS, stained with CD3e, B220, Ter119, Gr1 (Lineage)-PeCy5, c-Kit-Efluor780, Sca1-BV421, CD48-FITC, CD150-BV605 and 7-AAD (for dead cell exclusion) and analyzed on a BD FACSARIA III. […] For plating of CFU assays, 100 LT-HSCs were sorted (gating strategy shown in FIG. 13, d) and resuspended in 3.0 mL Methocult M3434 (STEMCELL Technologies, France). Each mixture was divided onto 2 wells of a non-tissue culture treated 6-well plate. Following a 14-day incubation in a humidified incubator at 37° C., 5% CO2, 20% O2, colonies were morphologically distinguished and scored.

[4] = system: mitochondrial pyruvate carrier (MPC); settings: read-out: IC50 of pyruvate-dependent O2 consumption; cited from earlier work
[5] = system: LT-HSCs; experiment: CFU assay of LT-HSCs sorted from E14.5 fetal livers of treated embryos; format: in vivo, mice; settings: DCA-treated embryos vs control and UK5099
Experimental: as §1

[6] = system: HE cells; experiment: confocal imaging: filipin III and histone acetylation staining; format: cell-based, human; settings: day 2, DCA-treated HE cells
Experimental: For TMRE staining, on day 3 of subculture, half of the culture medium was removed and cells were stained with 20 nM TMRE (Thermo Fisher Scientific, T669) by direct addition into the culture medium of a 2× concentrated solution. After a 20-minute incubation at 37° C., wells were carefully washed with PBS and fresh HE medium was added. During acquisition, cells were kept in a humidified incubator at 37° C., 5% CO2, 20% O2. For immunocytochemistry, subculture day 2 HE cells (plated on coverslips) were washed twice in PBS, fixed with 4% PFA for 15 minutes at RT and washed three times with PBS. For filipin staining, fixed cells were incubated with 100 μg/ml filipin III (Sigma-Aldrich, F4767) for 1 hour, washed three times with PBS and rinsed with distilled water before mounting with PVA/DABCO. […] Intensity quantification was performed using the Fiji software as follows. For TMRE, using the brightfield channel, ROIs were selected for 5 spindle-shaped and 5 round cells (randomly chosen) and average intensity for each ROI was calculated in a summatory Z-stack of the TMRE channel. For filipin and acetylation, the summatory Z-stack for the filipin channel was obtained and average intensity calculated. A total of 2-3 independent experiments with 2-3 replicate wells were quantified. […]

SMILES | decrease in the CD43+CD45+ population [1] | NK cell differentiation (CD45+CD56+) [2] | effect on in vivo EHT and hematopoiesis ([3]; UK5099 4 mg/kg i.p. at E9.5) | frequency of phenotypic long-term HSCs (LT-HSCs) ([3]; fetal liver E14.5, i.p. at E9.5, UK5099 4 mg/kg or DCA 200 mg/kg) | IC50 [4] [nM] | decrease in the BFU-E to CFU-GM ratio [5] [%] | increase in cholesterol content [6] [%]
N#C/C(=C\c1cn(-c2ccccc2)c2ccccc12)C(=O)O [UK5099] | 2 -fold | impaired NK cell formation | No significant effect | not affected | […] | – | –
O=C(O)C(Cl)Cl [DCA, dichloroacetate] | – | – | – | – | – | 80 | 8

Reference: US20220348876A1, “METABOLISM GUIDES DEFINITIVE LINEAGE SPECIFICATION DURING ENDOTHELIAL TO HEMATOPOIETIC TRANSITION” (Amniotics AB, priority 2019, published 2022)
